Type in all cases: cell-based, human
One test has as its system LC3-II. In words: Western immunoblotting of autophagy marker LC3-I/II. To be noted: U87-MG, 12 h treatment +/- 12 h HCQ co-treatment, total 24 h. As to the method:
U87-MG cells were plated at 500,000 cells/well in 6-well plates and allowed to adhere overnight (Falcon). Medium was removed and replaced with fresh medium containing drugs or compounds for the indicated timepoints. Cells were collected after treatment by washing with PBS, harvested with trypsin plus agitation to detach cells, pelleted in a centrifuge and resuspended in PBS to wash. Cells were transferred to 1.5 mL microcentrifuge tubes, pelleted, and resuspended in RIPA lysis buffer (50 mM Tris pH 8.0, 150 mM NaCl, 1% nonidet P40, 0.5% sodium deoxycholate, and 0.05% SDS) containing 1 mM NaVO4, 1 mM NaF, 1 mM phenylmethylsulfonyl fluoride, 0.1 μg/mL antipain, 1 μM aprotinin, 100 μM benzamidine HCl, 0.1 μg/mL leupeptin, 0.1 μg/mL pepstatin, and 0.1 μg/mL soybean trypsin inhibitor. Protein was quantified using a BCA assay kit (Pierce). 50 μg of protein was prepared in 1× Laemmli sample buffer (50 mM Tris pH 6.8, 0.02% w/v bromophenol blue, 2% w/v SDS, 10% v/v glycerol, 1% v/v beta-mercaptoethanol, 12.5 mM EDTA) and separated by SDS-PAGE on a 4-15% polyacrylamide gradient gel (Bio-Rad). […]

The next test has as its system γ-H2AX. Description: Immunofluorescence staining for DNA damage marker γ-H2AX. As to conditions: U87-MG, 2 μM, 24 h. As for the experimental part: (§1) U87-MG cells were plated at a concentration of 50,000 cells/well onto precoated poly-D-lysine (PDL) coverslips (Neuvitro) in 24-well plates (Falcon) and allowed to adhere overnight. Medium was removed and replaced with treatment-laced media normalized to DMSO, and cells were treated for the indicated timepoints. At the time of collection, cells were washed with PBS and fixed with 4% paraformaldehyde without methanol (EMS) or 100% methanol (Fischer). Coverslips were washed with Tween20-containing PBS (PBST; Fischer). Following permeabilization with 0.5% Triton X-100 in PBS (Fischer), coverslips were blocked for 1 h at room temperature in IF Buffer (0.05% azide, 0.2% Triton X-100, 2% Normal Goat Serum or, for 8-OHG, Normal Donkey Serum). The following primary antibodies were used for 1 hour at room temperature unless specified: AlexaFluor 488 pre-conjugated anti-γ-H2AX (N1-431) mouse monoclonal (30 minutes; BD Biosciences), anti-cleaved caspase 3 (Asp175) rabbit polyclonal (Cell Signaling), anti-SQSTM1/p62 (D-3) mouse monoclonal (Santa Cruz), anti-8-Hydroxyguanosine goat polyclonal (1:200; Millipore), anti-LAMP1 (D4O1S) mouse monoclonal (O/N at 4° C.; Cell Signaling), anti-BNIP3L/Nix (D4R4B) rabbit monoclonal (O/N at 4° C.; Cell Signaling), anti-FLAG (M2) mouse monoclonal (2 hours at 37° C.; Sigma-Aldrich). […]

The subject of the next test is lysosomes. Description: Immunofluorescence staining of lysosomes (LAMP1) and mitochondria (Tom20). As to conditions: U87-MG, 2 μM, 16 h. As to the method:
as §1, with “Sigma-Aldrich). Following washes with PBST, cells were stained with goat anti-rabbit or goat anti-mouse AlexaFluor 488 or AlexaFluor 594 (or, for 8-OHG, donkey anti-goat AlexaFluor 488) secondary antibody at 1:800 for 1 hour at room temperature (Jackson ImmunoResearch).” for “Sigma-Aldrich).”
All confocal images were acquired on a Nikon AIRSi confocal microscope equipped with a 60× 1.4 NA oil objective, a DU4 detector unit, and Nikon Elements software. Otherwise, images were acquired on a Zeiss Axio Imager.Z1 equipped with a Zeiss EC Plan-NEOFLUAR 40× 1.3 NA oil objective, a Zeiss AxioCam MRm camera, a Lumen Dynamics Series 120 Q X-Cite Fluorescence Illuminator, and AxioVision SE64 Rel. […]

In another test the test system is sNF96.2 cells. In words: Hoechst cell death viability assay, sNF96.2. To be noted: sNF96.2 MPNST cells, up to 3 days, 100 μM to 0.039 μM, Hoechst 33258. As for the experimental part: Cells were plated at 2,500 cells/well in 96-well plates and allowed to adhere overnight. Medium was removed and replaced with media containing compound starting at 100 μM, followed by 2-fold serial dilutions to generate a 10-point range of concentrations normalized with DMSO; one row was treated with DMSO as a control. Cells were incubated for the indicated timepoints. Upon collection, media was removed, cells were rinsed with PBS, and stored at −80° C. until all plates were collected. To process cells, plates were thawed with PBS, incubated with 1× saline-sodium citrate (SSC) buffer with 0.02% sodium dodecyl sulfate (SDS) for 1 hour at 37° C., followed by staining with 1 μg/mL Hoechst 33258 (Pierce). […] using a Spectramax M2 at an excitation of 355 nm and an emission of 460 nm, and absorbance was normalized to DMSO. Each experiment was repeated 2-3 times with 4 technical replicates per experiment.

Another test has as its system BNIP3L/Nix. In words: qPCR of BNIP3L/Nix transcript. To be noted: U87-MG.

Regarding `Cn1cnnc1S/C=C/C(=O)c1ccc(F)cc1` [Y102], the “LC3-II accumulation (western immunoblotting)” value with LC3-II was “did not result in LC3-II accumulation”. In the test on γ-H2AX, the “change in γ-H2AX expression” value is “no significant change”. Also, in the test on lysosomes (LAMP1), the localization of lysosomes result is “perinuclear region” and the lysosome expression entry is recorded as “increase”. Also, the “colocalization between lysosomes and mitochondria” value with lysosomes (LAMP1/Tom20, ratiometric analysis, confocal) is “observed”. Also, the “sensitivity of NF1-deficient cell line to treatment” value in the test with sNF96.2 cells is recorded as “sensitive”. Also, the “BNIP3L/Nix RNA levels versus DMSO” value with BNIP3L/Nix is recorded as “little difference”.

These data come from US20220326218A1, “COMPOSITION AND METHOD FOR INHIBITING BORC COMPLEX TO TREAT CANCERS WITH NF1 DEFICIENCY AND DYSREGULATED RAS SIGNALING” (THE TRUSTEES OF DARTMOUTH COLLEGE, priority 2019, published 2022).
